In the supplement of paper PMC10307832:

What was measured:
Test in all cases: relative viability (nuclei count vs DMSO), 5 days (fraction); higher = more cells survive
VE-821 + Linsitinib = compound: CS(=O)(=O)c1ccc(-c2cnc(N)c(C(=O)Nc3ccccc3)n2)cc1 [VE-821] + C[C@]1(O)C[C@@H](c2nc(-c3ccc4ccc(-c5ccccc5)nc4c3)c3c(N)nccn32)C1 [Linsitinib] (partner 1 µM)
Procedure, shortened: (§1)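 Values are medians from duplicate plates. Each reflects relative viability, defined as the nuclei count of treated wells over that of vehicle wells. Lung cancer cell lines in 1536-well plates were pin-tool dosed one day after seeding with one drug alone or with a fixed anchor-drug dose plus five library-drug doses (not always all listed) in √10 steps, then fixed, stained and imaged at 4× after 5 days.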

Vismodegib + Navitoclax = compound: CS(=O)(=O)c1ccc(C(=O)Nc2ccc(Cl)c(-c3ccccn3)c2)c(Cl)c1 [Vismodegib] + CC1(C)CCC(c2ccc(Cl)cc2)=C(CN2CCN(c3ccc(C(=O)NS(=O)(=O)c4ccc(N[C@H](CCN5CCOCC5)CSc5ccccc5)c(S(=O)(=O)C(F)(F)F)c4)cc3)CC2)C1 [Navitoclax] (partner 0.5 µM)
Procedure, shortened: as §1

Ruxolitinib + Foretinib = compound: N#CC[C@H](C1CCCC1)n1cc(-c2ncnc3[nH]ccc23)cn1 [Ruxolitinib] + COc1cc2c(Oc3ccc(NC(=O)C4(C(=O)Nc5ccc(F)cc5)CC4)cc3F)ccnc2cc1OCCCN1CCOCC1 [Foretinib] (partner 0.25 µM)
Procedure, shortened: as §1

Ruxolitinib + Alpelisib = compound: N#CC[C@H](C1CCCC1)n1cc(-c2ncnc3[nH]ccc23)cn1 [Ruxolitinib] + Cc1nc(NC(=O)N2CCC[C@H]2C(N)=O)sc1-c1ccnc(C(C)(C)C(F)(F)F)c1 [Alpelisib] (partner 2 µM)
Procedure, shortened: as §1

Row | Cell Line | relative viability (VE-821 + Linsitinib; first compound 0.08 µM) | relative viability (VE-821 + Linsitinib; first compound 0.253 µM) | relative viability (VE-821 + Linsitinib; first compound 0.8 µM) | relative viability (VE-821 + Linsitinib; first compound 2.53 µM) | relative viability (VE-821 + Linsitinib; first compound 8 µM) | relative viability (Vismodegib + Navitoclax; first compound 0.08 µM) | relative viability (Vismodegib + Navitoclax; first compound 0.253 µM) | relative viability (Vismodegib + Navitoclax; first compound 0.8 µM) | relative viability (Vismodegib + Navitoclax; first compound 2.53 µM) | relative viability (Vismodegib + Navitoclax; first compound 8 µM) | relative viability (Ruxolitinib + Foretinib; first compound 0.08 µM) | relative viability (Ruxolitinib + Foretinib; first compound 0.253 µM) | relative viability (Ruxolitinib + Foretinib; first compound 0.8 µM) | relative viability (Ruxolitinib + Foretinib; first compound 2.53 µM) | relative viability (Ruxolitinib + Foretinib; first compound 8 µM) | relative viability (Ruxolitinib + Alpelisib; first compound 0.08 µM) | relative viability (Ruxolitinib + Alpelisib; first compound 0.253 µM) | relative viability (Ruxolitinib + Alpelisib; first compound 0.8 µM) | relative viability (Ruxolitinib + Alpelisib; first compound 2.53 µM) | relative viability (Ruxolitinib + Alpelisib; first compound 8 µM)
1 | NCI-H1944 | 1.26 | 1.16 | 0.832 | 1.3 | 0.663 | 0.994 | 1.05 | 1.04 | 1.02 | 0.999 | 0.839 | 0.886 | 0.876 | 0.873 | 0.877 | 0.777 | 0.689 | 0.863 | 0.782 | 0.753
2 | NCI-H441 | 0.762 | 0.666 | 0.651 | 0.821 | 0.42 | 0.808 | 0.734 | 0.722 | 0.554 | 0.689 | 1.07 | 0.915 | 0.997 | 0.787 | 0.855 | 0.665 | 0.52 | 0.71 | 0.553 | 0.565
3 | NCI-H1437 | 1.2 | 1.08 | 0.927 | 0.997 | 0.558 | 0.945 | 1.08 | 1.09 | 1.07 | 1.1 | 1.37 | 1.51 | 1.41 | 1.35 | 1.17 | 0.871 | 0.807 | 1.01 | 1.03 | 0.795
4 | NCI-H1703 | 1.42 | 0.51 | 0.649 | 0.93 | 0.629 | 1.02 | 1.05 | 0.986 | 1.23 | 1.47 | 0.298 | 0.338 | 0.376 | 0.329 | 0.287 | 0.316 | 0.343 | 0.382 | 0.19 | 0.283
5 | EPLC-272H | 1.28 | 0.928 | 1.22 | 1.6 | 1.11 | 1.01 | 1.2 | 1.09 | 1.09 | 1.09 | 0.645 | 0.635 | 0.79 | 0.573 | 0.472 | 0.841 | 0.903 | 1.07 | 1.06 | 1.01
6 | LOU-NH91 | 0.94 | 0.949 | 0.989 | 1.04 | 0.898 | 0.618 | 0.686 | 0.687 | 0.672 | 0.747 | – | 0.968 | 1.02 | 0.877 | 0.876 | 0.569 | 0.674 | 0.796 | 0.736 | 0.694
7 | RERF-LC-KJ | 0.902 | 0.871 | 0.819 | 0.875 | 0.753 | 0.997 | 1.08 | 0.85 | 0.756 | 0.802 | 0.862 | 0.95 | 0.914 | 0.921 | 0.927 | 0.811 | 0.775 | 0.892 | 0.877 | 0.771
8 | NCI-H1975 | 0.932 | 0.92 | 0.876 | 0.862 | 0.658 | 1.2 | 1.06 | 1.22 | 1.08 | 1.09 | 1.04 | 0.933 | 0.995 | 0.956 | 0.603 | 0.663 | 0.559 | 0.587 | 0.482 | 0.338
9 | NCI-H1299 | 0.946 | 0.886 | 0.928 | 1.06 | 0.959 | 1.03 | 1 | 1.09 | 0.935 | 1.01 | 1.09 | 1.1 | 1.05 | 0.982 | 0.853 | 1.05 | 1.08 | 1.05 | 0.949 | 0.996
10 | SK-MES-1 | 1.04 | 1.05 | 1.02 | 1.02 | 0.983 | 1.23 | 1.22 | 1.23 | 1.15 | 1.17 | 0.927 | 0.714 | 0.955 | 0.788 | 0.768 | 0.984 | 0.878 | 0.986 | 0.722 | 0.795
11 | HOP-62 | 0.838 | 0.911 | 0.933 | 1.23 | 0.873 | 0.985 | 1.06 | 0.915 | 0.819 | 1.07 | 1.16 | 1.07 | 1.16 | 1.11 | 1.09 | – | 0.813 | 1.05 | 0.96 | 0.723
12 | HCC-15 | 1.01 | 0.816 | 0.954 | 0.961 | 0.889 | 0.675 | 0.678 | 0.689 | 0.665 | 0.676 | 1.04 | 0.995 | 1.1 | 0.926 | 0.771 | 0.844 | 0.875 | 0.923 | 0.812 | 0.73
13 | A-427 | 1.18 | 1.12 | 1.06 | 1.08 | 0.894 | 0.988 | 0.897 | 0.889 | 1 | 0.976 | 0.992 | 1.1 | 1.06 | 0.918 | 0.988 | 1.09 | 1.03 | 1.07 | 1.06 | 1.03
